System: Brassica plants comprising mutant AHAS alleles
Experiment: Field trial, pre-planting treatment (0, 10, 20, 30 g a.i./ha), two locations in Canada: ERG, EST1, EST2, PPTOX, VIG1, VIG2, VIG3 scores
Assay type: in vivo, Brassica napus
Conditions: for establishment (EST1) score Av, 14 days after sowing / emergence (ERG) score Av: AHAS1 WT
Text: Tests were set up and conducted to asses the growth and performance of plants comprising AHAS full knock-out alleles, and to further analyze the correlation between the presence of full knockout and missense AHAS genes in Brassica plants and plant growth and herbicide tolerance of the Brassica plants in the field. To this end, the Brassica plants identified in Example 1 and 2 were backcrossed two times with an elite parent line, and subsequently selfed twice to obtain homozygous plants (BC2S2). Plants were grown as row plots in a split plot design with three replicates (main plots=herbicide treatments, subplots=genotypes) at two locations in Canada. Treatment pre-planting was carried out on the soil about two days before sowing with a dose of 0 (treatment A), 10 (treatment B), 20 (treatment C) or 30 (treatment D) g a.i./ha of thiencarbazone methyl. Herbicide tolerance was measured by scoring for different parameters. The parameter emergence (ERG) was scored at the cotyledon stage on a scale 1-9, where 1 means late emergence and 9 means early emergence. Establishment was scored 14 days after sowing (EST1) and 21 days after sowing (EST2). Scores were from 1 to 9, where 1 is the worst establishment (least plants that emerged), and 9 is the best establishment (most plants emerged). Phytotoxicity (PPTOX) was determined after establishment. Plants were evaluated on a scale of 1 to 9, where 1=completely yellowing, 5=50% of plant is yellow and 9=no yellowing. The vigor scores (see above) were determined at 1-2 leaf stage (VIG1), 7 days after VIG1 (VIG2) and 14 days after VIG1 (VIG3). The average values (Av) and standard deviations (SD) of the scores for the different parameters are represented in Table 7a-g.
Further, the contribution of the knock-out allele to herbicide tolerance conferred by the missense allele was calculated. First, the scores were corrected for a possible effect of the growth per se, independent of herbicide treatment. To this end, the scores for treatments B, C and D were divided by the scores for treatment A for the same genotype and for the same parameter (corrected herbicide tolerance scores). Next, the effect of the knock-out allele to these corrected herbicide tolerance scores obtained by the missense allele was calculated. Therefore, the corrected herbicide tolerance scores for the missense—knock-out allele combination was divided by the corrected herbicide tolerance scores for the missense allele—wild-type combination. In case the knock-out allele has no effect on herbicide tolerance conferred by the missense allele, this ratio should be 1. In case the knock-out allele positively contributes to the herbicide tolerance conferred by the missense allele, this ratio should be higher than 1. The results for the contribution of the knock-out allele to herbicide tolerance conferred by the missense allele as calculated above are shown in table 8.

[1] = AHAS3 HETO111 (HETO108+HETO111 series), treatment B 10 g a.i./ha pre-planting, Location B
[2] = AHAS3 HETO111 (HETO108+HETO111 series), treatment C 20 g a.i./ha pre-planting, Location A
[3] = AHAS3 HETO111 (HETO108+HETO111 series), treatment C 20 g a.i./ha pre-planting, Location B
[4] = AHAS3 HETO111 (HETO108+HETO111 series), treatment D 30 g a.i./ha pre-planting, Location A
[5] = AHAS3 HETO111 (HETO108+HETO111 series), treatment D 30 g a.i./ha pre-planting, Location B
[6] = AHAS3 HETO111 (HETO112+HETO111 series), treatment B 10 g a.i./ha pre-planting, Location A
[7] = AHAS3 HETO111 (HETO112+HETO111 series), treatment B 10 g a.i./ha pre-planting, Location B
[8] = AHAS3 HETO111 (HETO112+HETO111 series), treatment C 20 g a.i./ha pre-planting, Location A
[9] = AHAS3 HETO111 (HETO112+HETO111 series), treatment C 20 g a.i./ha pre-planting, Location B
[10] = AHAS3 HETO111 (HETO112+HETO111 series), treatment D 30 g a.i./ha pre-planting, Location A
[11] = AHAS3 HETO111 (HETO112+HETO111 series), treatment D 30 g a.i./ha pre-planting, Location B
[12] = AHAS3 WT (HETO108+HETO104 series), treatment B 10 g a.i./ha pre-planting, Location A
[13] = AHAS3 WT (HETO108+HETO104 series), treatment B 10 g a.i./ha pre-planting, Location B
[14] = AHAS3 WT (HETO108+HETO104 series), treatment C 20 g a.i./ha pre-planting, Location A
[15] = AHAS3 WT (HETO108+HETO104 series), treatment C 20 g a.i./ha pre-planting, Location B
[16] = AHAS3 WT (HETO108+HETO104 series), treatment D 30 g a.i./ha pre-planting, Location A
[17] = AHAS3 WT (HETO108+HETO104 series), treatment D 30 g a.i./ha pre-planting, Location B
[18] = AHAS3 WT (HETO108+HETO111 series), treatment B 10 g a.i./ha pre-planting, Location A
[19] = AHAS3 WT (HETO108+HETO111 series), treatment B 10 g a.i./ha pre-planting, Location B
[20] = AHAS3 WT (HETO108+HETO111 series), treatment C 20 g a.i./ha pre-planting, Location A
[21] = AHAS3 WT (HETO108+HETO111 series), treatment C 20 g a.i./ha pre-planting, Location B
[22] = AHAS3 WT (HETO108+HETO111 series), treatment D 30 g a.i./ha pre-planting, Location A
[23] = AHAS3 WT (HETO108+HETO111 series), treatment D 30 g a.i./ha pre-planting, Location B
[24] = AHAS3 WT (HETO112+HETO111 series), treatment B 10 g a.i./ha pre-planting, Location A
[25] = AHAS3 WT (HETO112+HETO111 series), treatment B 10 g a.i./ha pre-planting, Location B
[26] = AHAS3 WT (HETO112+HETO111 series), treatment C 20 g a.i./ha pre-planting, Location A
[27] = AHAS3 WT (HETO112+HETO111 series), treatment C 20 g a.i./ha pre-planting, Location B
[28] = AHAS3 WT (HETO112+HETO111 series), treatment D 30 g a.i./ha pre-planting, Location A
[29] = AHAS3 WT (HETO112+HETO111 series), treatment D 30 g a.i./ha pre-planting, Location B

COC(=O)c1csc(C)c1S(=O)(=O)NC(=O)n1nc(OC)n(C)c1=O [thiencarbazone-methyl, methyl 4-[(4,5-dihydro-3-methoxy-4-methyl-5-oxo-1H-1,2,4-triazol-1-yl)carbonylsulfamoyl]-5-methylthiophene-3-carboxylate]
establishment (EST1) score Av, 14 days after sowing (AHAS3 HETO111 (HETO108+HETO111 series), treatment B 10 g a.i./ha pre-planting, Location A): 5.00
emergence (ERG) score Av [1]: 5.00
establishment (EST1) score Av, 14 days after sowing [1]: 6.00
emergence (ERG) score Av [2]: 4.67
establishment (EST1) score Av, 14 days after sowing [2]: 5.33
emergence (ERG) score Av [3]: 4.00
establishment (EST1) score Av, 14 days after sowing [3]: 4.67
emergence (ERG) score Av [4]: 4.33
establishment (EST1) score Av, 14 days after sowing [4]: 4.33
emergence (ERG) score Av [5]: 4.00
establishment (EST1) score Av, 14 days after sowing [5]: 4.33
emergence (ERG) score Av [6]: 5.33
establishment (EST1) score Av, 14 days after sowing [6]: 5.67
emergence (ERG) score Av [7]: 4.67
establishment (EST1) score Av, 14 days after sowing [7]: 6.00
emergence (ERG) score Av [8]: 4.33
establishment (EST1) score Av, 14 days after sowing [8]: 4.67
emergence (ERG) score Av [9]: 4.67
establishment (EST1) score Av, 14 days after sowing [9]: 4.67
emergence (ERG) score Av [10]: 4.33
establishment (EST1) score Av, 14 days after sowing [10]: 4.33
emergence (ERG) score Av [11]: 3.67
establishment (EST1) score Av, 14 days after sowing [11]: 4.00
emergence (ERG) score Av [12]: 1.00
establishment (EST1) score Av, 14 days after sowing [12]: 1.00
emergence (ERG) score Av [13]: 3.00
establishment (EST1) score Av, 14 days after sowing [13]: 4.33
emergence (ERG) score Av [14]: 1.00
establishment (EST1) score Av, 14 days after sowing [14]: 1.00
emergence (ERG) score Av [15]: 1.67
establishment (EST1) score Av, 14 days after sowing [15]: 3.67
emergence (ERG) score Av [16]: 1.00
establishment (EST1) score Av, 14 days after sowing [16]: 1.00
emergence (ERG) score Av [17]: 1.33
establishment (EST1) score Av, 14 days after sowing [17]: 1.33
emergence (ERG) score Av [18]: 2.33
establishment (EST1) score Av, 14 days after sowing [18]: 2.67
emergence (ERG) score Av [19]: 3.33
establishment (EST1) score Av, 14 days after sowing [19]: 4.33
emergence (ERG) score Av [20]: 1.00
establishment (EST1) score Av, 14 days after sowing [20]: 1.00
emergence (ERG) score Av [21]: 2.33
establishment (EST1) score Av, 14 days after sowing [21]: 4.00
emergence (ERG) score Av [22]: 1.00
establishment (EST1) score Av, 14 days after sowing [22]: 1.00
emergence (ERG) score Av [23]: 1.33
establishment (EST1) score Av, 14 days after sowing [23]: 1.00
emergence (ERG) score Av [24]: 1.00
establishment (EST1) score Av, 14 days after sowing [24]: 1.00
emergence (ERG) score Av [25]: 3.67
establishment (EST1) score Av, 14 days after sowing [25]: 5.00
emergence (ERG) score Av [26]: 1.00
establishment (EST1) score Av, 14 days after sowing [26]: 1.00
emergence (ERG) score Av [27]: 1.67
establishment (EST1) score Av, 14 days after sowing [27]: 3.33
emergence (ERG) score Av [28]: 1.00
establishment (EST1) score Av, 14 days after sowing [28]: 1.00
emergence (ERG) score Av [29]: 1.33
establishment (EST1) score Av, 14 days after sowing [29]: 1.67
establishment (EST2) score, Av (AHAS1 WT/AHAS3 HETO104, 10 g a.i./ha pre-planting (B), Location A): 2.33

— US20120255051A1, “HERBICIDE TOLERANT PLANTS” (priority 2009, published 2012)
